Type in all cases: physicochemical
A short description of data set [1]: Rate of color fading at 35° C. of mixed acidified chlorite product, UV/Vis spectroscopy at 425 nm. As to conditions: for Initial Color Intensity Remaining, Time After Mixing 1 hour: 1 hour after mixing; for Initial Color Intensity Remaining, Time After Mixing 2 hour: 2 hour after mixing; for Initial Color Intensity Remaining, Time After Mixing 3 hour: 3 hour after mixing; for Initial Color Intensity Remaining, Time After Mixing 4 hour: 4 hour after mixing. On the procedure: (§1) The rate of color fading at 35° C. was quantified by UV/Vis spectroscopy at 425 nm.
as §1

The nature of data set [2]: Rate of chlorine dioxide generation in mixed acidified chlorite product, UV/Vis spectroscopy at 360 nm. As to conditions: olefin 0.0225M in mixed product, 1.32% lactic acid, 0.32% sodium chlorite, pH 2.75; for Chlorine Dioxide, Time After Mixing 1 hour: 1 hour after mixing; for Chlorine Dioxide, Time After Mixing 2 hour: 2 hour after mixing; for Chlorine Dioxide, Time After Mixing 3 hour: 3 hour after mixing; for Chlorine Dioxide, Time After Mixing 4 hour: 4 hour after mixing; for Chlorine Dioxide, Time After Mixing 5 hour: 5 hour after mixing. On the procedure:
A series of two-part acidified chlorite products were prepared that when combined 1:1 produced compositions containing 1.32% lactic acid, 0.32% sodium chlorite, an olefin compound formulated at a 0.0225M, and sufficient quantities of sodium hydroxide to produce a mixed product pH of 2.75. The rate of chlorine dioxide generation was determined by UV/Vis spectroscopy at 360 nm (54.31 ppm/A.U. cm).

Data set [3] in a line: Rate of sodium chlorite consumption, standard iodometric titration. The conditions noted are these: olefin compound at 1.4%. The text has this:
The rate of sodium chlorite consumption was quantified using a standard iodometric titration method.

The mark [4] stands for this setting: olefin 0.045M in acid part (0.0225M mixed), FD&C Yellow #5, pH 2.75.
Where [5] appears, read: component at 0.4%, mixed product pH 2.75.

Experimental findings from patent publication US8021694B2, “Acidified chlorite disinfectant compositions with olefin stabilizers” (Ecolab USA Inc., priority 2001, dated 2011) are described below.

On to `CCCCCCCC/C=C\CCCCCCCC(=O)NCCOC(=O)C(CC(=O)[O-])S(=O)(=O)[O-].[Na+].[Na+]` (centres unmarked) [Disodium oleamido MEA sulfosuccinate], for which, in data set [1] (setting [4]), the “Initial Color Intensity Remaining, Time After Mixing 1 hour” value is recorded as “** (>50% of Initial Color Intensity Remaining)”; the “Initial Color Intensity Remaining, Time After Mixing 2 hour” value is reported as “** (>50% of Initial Color Intensity Remaining)”; the “Initial Color Intensity Remaining, Time After Mixing 3 hour” value is reported as “** (>50% of Initial Color Intensity Remaining)”; the “Initial Color Intensity Remaining, Time After Mixing 4 hour” value is “** (>50% of Initial Color Intensity Remaining)”. Moreover, the “Initial Color Intensity Remaining, Time After Mixing ½ hour” value in data set [1] (setting [4]) is “** (>50% of Initial Color Intensity Remaining)”.

Regarding `CCCCCCCC/C=C\CCCCCCCC(=O)NCCC[N+](C)(C)CC(=O)[O-]` [Oleamidopropyl betaine], in data set [1] (setting [4]), the “Initial Color Intensity Remaining, Time After Mixing 1 hour” value is “** (>50% of Initial Color Intensity Remaining)”; the “Initial Color Intensity Remaining, Time After Mixing 2 hour” value was “** (>50% of Initial Color Intensity Remaining)”; the “Initial Color Intensity Remaining, Time After Mixing 3 hour” value is reported as “** (>50% of Initial Color Intensity Remaining)”; the “Initial Color Intensity Remaining, Time After Mixing 4 hour” value was “** (>50% of Initial Color Intensity Remaining)”. Also, the “Initial Color Intensity Remaining, Time After Mixing ½ hour” value in data set [1] (setting [4]) is reported as “** (>50% of Initial Color Intensity Remaining)”.

In the case of `CCCCCCCC/C=C\CCCCCCCC(=O)N(C)CCS(=O)(=O)[O-].[Na+]` [Sodium N-methyl oleoyl taurate, sodium N-methyl oleoyl taurate], in data set [2], the “Chlorine Dioxide, Time After Mixing 1 hour” value is given as 4 ppm; the “Chlorine Dioxide, Time After Mixing 2 hour” value was 5 ppm; the “Chlorine Dioxide, Time After Mixing 3 hour” value is 5 ppm; the “Chlorine Dioxide, Time After Mixing 4 hour” value is on record as 6 ppm. Further, in data set [2], the “Chlorine Dioxide, Time After Mixing 5 hour” value is reported as 7 ppm. The “Initial NaClO2 Level remaining, Time After Mixing 1 hour” value in data set [3] (1 hour after mixing, pH 2.75 when mixed 1:1) is recorded as “** (>50% Initial NaClO2 Level)”. Also, the “Initial NaClO2 Level remaining, Time After Mixing 2 hour” value in data set [3] (2 hour after mixing, pH 2.75 when mixed 1:1) is listed as “** (>50% Initial NaClO2 Level)”. Moreover, the “Initial NaClO2 Level remaining, Time After Mixing 3 hour” value in data set [3] (3 hour after mixing, pH 2.75 when mixed 1:1) was “** (>50% Initial NaClO2 Level)”. Besides, in data set [3] (4 hour after mixing, pH 2.75 when mixed 1:1), the “Initial NaClO2 Level remaining, Time After Mixing 4 hour” value is recorded as “** (>50% Initial NaClO2 Level)”. Moreover, the “Initial NaClO2 Level remaining, Time After Mixing 5 hour” value in data set [3] (5 hour after mixing, pH 2.75 when mixed 1:1) is reported as “** (>50% Initial NaClO2 Level)”. In data set [3] (equal weight-base comparison, in words), the “Rate of sodium chlorite consumption” value is on record as “stronger effect than alpha olefin sulfonate”. Also, in data set [1] (setting [5]), the “Initial Color Intensity Remaining, Time After Mixing 1 hour” value was “** (>50% of Initial Color Intensity Remaining)”; the “Initial Color Intensity Remaining, Time After Mixing 2 hour” value is given as “** (>50% of Initial Color Intensity Remaining)”; the “Initial Color Intensity Remaining, Time After Mixing 3 hour” value is given as “** (>50% of Initial Color Intensity Remaining)”; the “Initial Color Intensity Remaining, Time After Mixing ½ hour” value is on record as “** (>50% of Initial Color Intensity Remaining)”. In addition, in data set [1] (setting [4]), the “Initial Color Intensity Remaining, Time After Mixing 1 hour” value is reported as “** (>50% of Initial Color Intensity Remaining)”; the “Initial Color Intensity Remaining, Time After Mixing 2 hour” value is on record as “** (>50% of Initial Color Intensity Remaining)”; the “Initial Color Intensity Remaining, Time After Mixing 3 hour” value is “** (>50% of Initial Color Intensity Remaining)”; the “Initial Color Intensity Remaining, Time After Mixing 4 hour” value is given as “** (>50% of Initial Color Intensity Remaining)”. For the same compound, the “Initial Color Intensity Remaining, Time After Mixing ½ hour” value in data set [1] (setting [4]) is on record as “** (>50% of Initial Color Intensity Remaining)”. In addition, the “Extension of colorant intensity” value in data set [1] (component at 0.4%, in words) is “extended the colorant intensity longer”.

For `CCCCCCCC/C=C\CCCCCCCC[N+](C)(CCO)CCO.[Cl-]` [oleylmethylbis(hydroxyethyl)ammonium chloride], in data set [1] (setting [4]), the “Initial Color Intensity Remaining, Time After Mixing 1 hour” value is listed as “** (>50% of Initial Color Intensity Remaining)”; the “Initial Color Intensity Remaining, Time After Mixing 2 hour” value is “** (>50% of Initial Color Intensity Remaining)”; the “Initial Color Intensity Remaining, Time After Mixing 3 hour” value was “** (>50% of Initial Color Intensity Remaining)”; the “Initial Color Intensity Remaining, Time After Mixing 4 hour” value was “** (>50% of Initial Color Intensity Remaining)”. Also, in data set [1] (setting [4]), the “Initial Color Intensity Remaining, Time After Mixing ½ hour” value was “** (>50% of Initial Color Intensity Remaining)”.

For Oleth-10, in data set [2], the “Chlorine Dioxide, Time After Mixing 1 hour” value was 10 ppm; the “Chlorine Dioxide, Time After Mixing 2 hour” value is 16 ppm; the “Chlorine Dioxide, Time After Mixing 3 hour” value is 21 ppm; the “Chlorine Dioxide, Time After Mixing 4 hour” value is given as 25 ppm. Moreover, the “Chlorine Dioxide, Time After Mixing 5 hour” value in data set [2] is 28 ppm. For the same compound, in data set [1] (setting [4]), the “Initial Color Intensity Remaining, Time After Mixing 1 hour” value is reported as “** (>50% of Initial Color Intensity Remaining)”; the “Initial Color Intensity Remaining, Time After Mixing 2 hour” value is “** (>50% of Initial Color Intensity Remaining)”; the “Initial Color Intensity Remaining, Time After Mixing 3 hour” value was “** (>50% of Initial Color Intensity Remaining)”; the “Initial Color Intensity Remaining, Time After Mixing 4 hour” value was “** (>50% of Initial Color Intensity Remaining)”. Further, in data set [1] (setting [4]), the “Initial Color Intensity Remaining, Time After Mixing ½ hour” value is “** (>50% of Initial Color Intensity Remaining)”.

For Oleth-10 phosphate, in data set [2], the “Chlorine Dioxide, Time After Mixing 1 hour” value is on record as 7 ppm; the “Chlorine Dioxide, Time After Mixing 2 hour” value turned out to be 14 ppm; the “Chlorine Dioxide, Time After Mixing 3 hour” value worked out at 17 ppm; the “Chlorine Dioxide, Time After Mixing 4 hour” value stood at 21 ppm. Further, in data set [2], the “Chlorine Dioxide, Time After Mixing 5 hour” value is recorded as 25 ppm. For the same compound, in data set [1] (setting [4]), the “Initial Color Intensity Remaining, Time After Mixing 1 hour” value is “** (>50% of Initial Color Intensity Remaining)”; the “Initial Color Intensity Remaining, Time After Mixing 2 hour” value is reported as “** (>50% of Initial Color Intensity Remaining)”; the “Initial Color Intensity Remaining, Time After Mixing 3 hour” value is listed as “** (>50% of Initial Color Intensity Remaining)”; the “Initial Color Intensity Remaining, Time After Mixing 4 hour” value was “** (>50% of Initial Color Intensity Remaining)”. Also, the “Initial Color Intensity Remaining, Time After Mixing ½ hour” value in data set [1] (setting [4]) is “** (>50% of Initial Color Intensity Remaining)”.
